Assay results as given in US10975037B2 (priority 2018, dated 2021).
Read-outs that look alike come from different tables or passages of the source. Marks after values point to notes of the source that are not given here.

How the values were obtained:
[1] = biological target: RORγT (Mus musculus (Mouse), UniProt P51450); conditions: mice; cited from earlier work
[2] = biological target: full-length human RORγt (Homo sapiens (Human), UniProt P51449); test: RORγt (full-length human) reporter assay, conditions A or B, HEK293T cells; type: cell-based; conditions: for inhibition at 0.67 µM: 0.67 μM compound concentration (footnote ****); for inhibition at 6 µM: read-out: RORγt (FL) Reporter Assay A or B, % inhibition @ 6 μM, 6 μM compound concentration
In short: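 Dual-luciferase read-out was taken after an overnight (16–20 h) compound exposure. Firefly data were scaled between DMSO-only and saturating reference compound, Renilla-normalized, then plotted against concentration for IC50.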

[3] = tested on: IL-17 production by CD4 T cells under conditions which favor Th17 differentiation; test: Human Th17 assay (IL-17 production by CD4 T cells); type: cell-based; conditions: read-out: Human Th17 Assay, IC50
Procedure: The human Th17 assay tests the effect of RORγt modulatory compounds on IL-17 production by CD4 T cells under conditions which favor Th17 differentiation. Total CD4^+ T cells were isolated from the peripheral blood mononuclear cells (PBMC) of healthy donors using a CD4^+ T cell isolation kit II, following the manufacturer's instructions (Miltenyi Biotec). […] 50 μL of compound at titrated concentrations in DMSO were added into each well at final DMSO concentration at 0.2%. Cells were incubated for 1 hour, then 50 μL of Th17 cell differentiation medium was added to each well. […] Cells were cultured at 37° C. and 5% CO2 for 3 days. Supernatants were collected and the accumulated IL-17 in culture was measured by using MULTI-SPOT® Cytokine Plate following manufacture's instruction (Meso Scale Discovery). The plate was read using Sector Imager 6000, and IL-17 concentration was extrapolated from the standard curve. The IC50s were determined by GraphPad.

[4] = biological target: human RORγt ligand binding domain (RORγt LBD) (Homo sapiens (Human), UniProt P51449); test: RORγt ThermoFluor® assay (thermal shift binding)
In short: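 Thermal shift with 0.065 mg/mL RORγt LBD and 60 μM 1,8-ANS in 100 mM Hepes pH 7.0, 10 mM NaCl, 2.5 mM GSH, 0.002% Tween-20.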

[5] = HEK-293T, read-out: RORγt (FL) Reporter Assay A or B, % inhibition
[6] = RORγt (FL) Reporter Assay A or B, IC50, HEK293T cells
[7] = read-out: ThermoFluor® Assay, Kd

Chain of human RORγt ligand binding domain (RORγt LBD) (P51449 other isoform, or with tags, fused parts or gaps): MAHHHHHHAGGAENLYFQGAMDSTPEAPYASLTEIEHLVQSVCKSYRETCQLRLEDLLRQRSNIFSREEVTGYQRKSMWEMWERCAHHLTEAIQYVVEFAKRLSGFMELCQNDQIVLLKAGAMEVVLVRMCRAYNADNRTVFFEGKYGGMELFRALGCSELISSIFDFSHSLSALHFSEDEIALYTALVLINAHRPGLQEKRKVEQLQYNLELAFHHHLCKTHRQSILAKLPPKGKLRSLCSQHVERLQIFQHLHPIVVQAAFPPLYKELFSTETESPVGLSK
Chain of full-length human RORγt (P51449 other isoform, or with tags, fused parts or gaps): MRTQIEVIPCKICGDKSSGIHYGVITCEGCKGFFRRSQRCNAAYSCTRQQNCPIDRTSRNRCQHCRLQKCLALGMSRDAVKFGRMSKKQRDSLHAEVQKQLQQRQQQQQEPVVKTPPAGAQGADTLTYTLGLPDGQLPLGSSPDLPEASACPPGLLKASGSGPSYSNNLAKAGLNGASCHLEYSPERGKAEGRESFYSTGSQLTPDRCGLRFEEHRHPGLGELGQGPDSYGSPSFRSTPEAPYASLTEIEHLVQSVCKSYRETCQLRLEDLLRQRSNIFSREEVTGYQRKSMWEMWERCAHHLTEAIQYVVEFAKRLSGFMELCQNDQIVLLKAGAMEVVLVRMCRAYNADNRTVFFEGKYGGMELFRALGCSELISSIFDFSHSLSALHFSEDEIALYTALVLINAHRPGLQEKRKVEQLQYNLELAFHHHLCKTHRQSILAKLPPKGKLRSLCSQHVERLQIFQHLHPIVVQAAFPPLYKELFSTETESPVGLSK
Chain of RORγT (P51450 other isoform, or with tags, fused parts or gaps): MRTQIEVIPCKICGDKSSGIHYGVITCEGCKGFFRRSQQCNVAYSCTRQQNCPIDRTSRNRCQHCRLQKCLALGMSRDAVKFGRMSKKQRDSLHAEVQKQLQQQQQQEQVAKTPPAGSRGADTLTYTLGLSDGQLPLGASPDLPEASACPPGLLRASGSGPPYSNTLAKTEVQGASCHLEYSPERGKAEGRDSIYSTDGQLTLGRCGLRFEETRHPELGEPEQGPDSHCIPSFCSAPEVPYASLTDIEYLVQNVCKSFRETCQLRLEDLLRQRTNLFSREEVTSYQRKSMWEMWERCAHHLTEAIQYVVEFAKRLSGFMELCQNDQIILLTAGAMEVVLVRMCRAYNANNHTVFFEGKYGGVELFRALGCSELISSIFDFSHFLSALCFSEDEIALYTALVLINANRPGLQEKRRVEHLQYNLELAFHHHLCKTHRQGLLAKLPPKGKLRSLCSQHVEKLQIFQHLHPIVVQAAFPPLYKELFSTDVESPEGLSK

Row | SMILES | inhibition at 0.67 µM [2, 5] | IC50 [2, 6] | IC50 ([3]; Homo sapiens, CD4+ T) | Kd [4, 7] | Kd ([4]; ThermoFluor® Assay, Kd) | further results
1 | CC(=O)Nc1nc(C)c(S(=O)(=O)Nc2ccc(C(O)(C(F)(F)F)C(F)(F)F)cc2)s1 [SR1001] |  |  |  |  |  | Th17-dependent learned helplessness [1]: reduced Th17-dependent learned helplessness
2 | CCn1nc(C(=O)NC[C@]2(O)CC[C@@H](S(C)(=O)=O)CC2)c(Cl)c1-c1ccc(CC(C(F)(F)F)C(F)(F)F)cc1OC [Example 85, 4-Chloro-1-ethyl-N-(((1s,4s)-1-hydroxy-4-(methylsulfonyl)cyclohexyl)methyl)-5-(2-methoxy-4-(3,3,3-trifluoro-2-(trifluoromethyl)propyl)phenyl)-1H-pyrazole-3-carboxamide] | 103% | 2.6 nM | 9.3 nM | 0.43 nM |  | 
3 | CCn1nc(C(=O)NC[C@]2(O)CC[C@@H](S(C)(=O)=O)CC2)c(C)c1-c1ccc(CCCC(F)(F)F)cc1OC(F)F [Example 79, 5-(2-(Difluoromethoxy)-4-(4,4,4-trifluorobutyl)phenyl)-1-ethyl-N-(((1s,4s)-1-hydroxy-4-(methylsulfonyl)cyclohexyl)methyl)-4-methyl-1H-pyrazole-3-carboxamide] | 99% | 8.7 nM | 58 nM | 2 nM |  | 
4 | CCn1nc(C(=O)NC[C@H]2CC[C@H](S(C)(=O)=O)CC2)c(Cl)c1-c1ccc(CCC(F)(F)F)cc1OC(F)F [Example 222, 4-Chloro-5-(2-(difluoromethoxy)-4-(3,3,3-trifluoropropyl)phenyl)-1-ethyl-N-(((1r,4r)-4-(methylsulfonyl)cyclohexyl)methyl)-1H-pyrazole-3-carboxamide] |  |  |  | 0.75 nM |  | RORγt (FL) Reporter Assay A or B, % inhibition ([2]; 3 μM compound concentration (footnote *)): 101* %; IC50 ([2]; HEK293T cells, read-out: RORγt (FL) Reporter Assay A or B, IC50): 6.2 nM; IC50 [3]: 11 nM
5 | CCn1nc(C(=O)NC[C@]2(O)CC[C@@H](S(C)(=O)=O)CC2)c(C)c1-c1ccc(CC(C)(C)C(F)(F)F)cc1OC(F)F [Example 143, 5-(2-(Difluoromethoxy)-4-(3,3,3-trifluoro-2,2-dimethylpropyl)phenyl)-1-ethyl-N-(((1s,4s)-1-hydroxy-4-(methylsulfonyl)cyclohexyl)methyl)-4-methyl-1H-pyrazole-3-carboxamide] |  | 7.3 nM | 10 nM | 0.37 nM |  | inhibition at […] ([2]; HEK-293T, 0.22 μM compound concentration (footnote *******), read-out: RORγt (FL) Reporter Assay A or B, % inhibition): 101%
6 | CCn1nc(C(=O)NC[C@]2(O)CC[C@@H](S(C)(=O)=O)CC2)c(Cl)c1-c1ccc(CC(C)C(F)(F)F)cc1OC(F)(F)F (stereo partly shown) [Example 191, 4-Chloro-1-ethyl-N-(((1s,4s)-1-hydroxy-4-(methylsulfonyl)cyclohexyl)methyl)-5-(4-(3,3,3-trifluoro-2-methylpropyl)-2-(trifluoromethoxy)phenyl)-1H-pyrazole-3-carboxamide] | 69% | 22 nM | 63 nM | 1.5 nM |  | 
7 | COc1cc(N[C@H](C)C(F)(F)F)ccc1-c1c(Cl)c(C(=O)NC[C@H]2CC[C@H](S(C)(=O)=O)CC2)nn1CCO [Example 201, 4-Chloro-1-(2-hydroxyethyl)-5-(2-methoxy-4-(((R)-1,1,1-trifluoropropan-2-yl)amino)phenyl)-N-(((r,4R)-4-(methylsulfonyl)cyclohexyl)methyl)-1H-pyrazole-3-carboxamide] |  | 1600 nM | 2800 nM | 200 nM |  | inhibition at 6 µM ([2]; HEK-293T): 82%
8 | CCn1nc(C(=O)NC[C@H]2CC[C@H](S(C)(=O)=O)CC2)c(Cl)c1-c1ccc(CC(C)(C)C(F)(F)F)cc1Cl [Example 165, 4-Chloro-5-(2-chloro-4-(3,3,3-trifluoro-2,2-dimethylpropyl)phenyl)-1-ethyl-N-(((1r,4r)-4-(methylsulfonyl)cyclohexyl)methyl)-1H-pyrazole-3-carboxamide] |  | 8 nM | 13 nM | 0.45 nM |  | inhibition at 0.07 µM ([2]; HEK-293T, 0.07 μM compound concentration (footnote *********), read-out: RORγt (FL) Reporter Assay A or B, % inhibition): 52%
9 | CCn1nc(C(=O)NC[C@H]2CC[C@H](S(C)(=O)=O)CC2)c(Cl)c1-c1ccc(C[C@H](C)C(F)(F)F)cc1OC (single isomer, unassigned) [Example 3, 4-Chloro-1-ethyl-5-(2-methoxy-4-((S*)-3,3,3-trifluoro-2-methylpropyl)phenyl)-N-(((1r,4R)-4-(methylsulfonyl)cyclohexyl)methyl)-1H-pyrazole-3-carboxamide] | 98% | 9 nM | 15 nM |  | 0.63 nM | 
10 | COc1cc(N[C@H](C)C(F)(F)F)ccc1-c1c(Cl)c(C(=O)NC[C@H]2CC[C@H](S(C)(=O)=O)CC2)nn1CCC#N [Example 129, 4-Chloro-1-(2-cyanoethyl)-5-(2-methoxy-4-(((R)-1,1,1-trifluoropropan-2-yl)amino)phenyl)-N-(((1r,4R)-4-(methylsulfonyl)cyclohexyl)methyl)-1H-pyrazole-3-carboxamide] |  | 810 nM | 2300 nM |  | 72 nM | inhibition at 6 µM ([2]; HEK-293T): 102%
11 | COCCn1nc(C(=O)NC[C@H]2CC[C@H](S(C)(=O)=O)CC2)c(Cl)c1-c1ccc(N[C@H](C)C(F)(F)F)cc1OC [Example 187, 4-Chloro-5-(2-methoxy-4-(((R)-1,1,1-trifluoropropan-2-yl)amino)phenyl)-1-(2-methoxyethyl)-N-(((1r,4R)-4-(methylsulfonyl)cyclohexyl)methyl)-1H-pyrazole-3-carboxamide] |  | 110 nM | 54 nM |  | 18 nM | inhibition at 6 µM ([2]; HEK-293T): 104%
12 | CCn1nc(C(=O)NC[C@]2(O)CC[C@@H](S(C)(=O)=O)C[C@H]2O)c(C)c1-c1ccc(C[C@H](C)C(F)(F)F)cc1OC(F)F (stereo in doubt) [Example 58, 5-(2-(difluoromethoxy)-4-((S*)-3,3,3-trifluoro-2-methylpropyl)phenyl)-N-(((1R*,2R*,4R*)-1,2-dihydroxy-4-(methylsulfonyl)cyclohexyl)methyl)-1-ethyl-4-methyl-1H-pyrazole-3-carboxamide] |  | 9.7 nM | 19 nM |  | 2.6 nM | inhibition at 3 µM ([2]; HEK-293T, 3 μM compound concentration (footnote *), read-out: RORγt (FL) Reporter Assay A or B, % inhibition): 100%
13 | CCn1nc(C(=O)NC[C@]2(O)CC[C@@H](S(C)(=O)=O)C[C@H]2O)c(Cl)c1-c1ccc(CC(C)(C)C(F)(F)F)cc1OC(F)F (single isomer, unassigned) [Example 46, 4-Chloro-5-(2-(difluoromethoxy)-4-(3,3,3-trifluoro-2,2-dimethylpropyl)phenyl)-N-(((1R*,2R*,4R*)-1,2-dihydroxy-4-(methylsulfonyl)cyclohexyl)methyl)-1-ethyl-1H-pyrazole-3-carboxamide] | 92% | 5 nM | 13 nM |  | 0.42 nM | 
